Results taken from PubChem BioAssay AID2060606 (Molecular Pharmacology Branch, DTP, NCI, 2025).

Test system: 922993-354-T-J3-PDC complex spheroids, viability, % test/control
Test: Anticancer human tumor 922993-354-T-J3-PDC patient-derived endometrial carcinoma cell line growth inhibition [CLK]
Details: for IC50: curve of first compound; for viability, T/C: stronger effect = lower value; active = viability on the fitted dose curve at most 10% of control; inactive = the rest
How it was run: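 Multi-cell-type spheroids combined patient-derived tumor cells with HUVEC endothelial cells and human mesenchymal stem cells. Paired agents were dosed in half-log steps down from about clinical Cmax, or from 10 microM where Cmax was unknown.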
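Note: spheroids exposed to the agents for 7 days before readout.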

CC(C)CC(NC(=O)C(Cc1ccccc1)NC(=O)c1cnccn1)B(O)O (configuration not stated) + CN1CCN(c2cc(C(=O)Nc3cc4cc(-c5cnn(C)c5)ccc4cn3)ccn2)CC1
active: viability, T/C (second compound 0.0316 µM, first compound 0.03 µM) 6.15% | viability, T/C (second compound 0.0316 µM, first compound 0.0949 µM) 1.44% | viability, T/C (second compound 0.0316 µM, first compound 0.3 µM) 1.26% | viability, T/C (second compound 0.1 µM, first compound 0.0949 µM) 1.08% | viability, T/C (second compound 0.1 µM, first compound 0.3 µM) 1.56% | viability, T/C (second compound 0.316 µM, first compound 0.03 µM) 6.46% | viability, T/C (second compound 0.316 µM, first compound 0.0949 µM) 1.39% | viability, T/C (second compound 0.316 µM, first compound 0.3 µM) 0.48% | viability, T/C (second compound 1 µM, first compound 0.000949 µM) 0.16% | viability, T/C (second compound 1 µM, first compound 0.003 µM) 1.6% | viability, T/C (second compound 1 µM, first compound 0.00949 µM) 0.98% | viability, T/C (second compound 1 µM, first compound 0.03 µM) 0.44% | viability, T/C (second compound 1 µM, first compound 0.0949 µM) 0.08% | viability, T/C (second compound 1 µM, first compound 0.3 µM) 0.48% | viability, T/C (second compound 3.16 µM, first compound 0.000949 µM) 0.1% | viability, T/C (second compound 3.16 µM, first compound 0.003 µM) 0.68% | viability, T/C (second compound 3.16 µM, first compound 0.00949 µM) 1% | viability, T/C (second compound 3.16 µM, first compound 0.03 µM) 0.07% | viability, T/C (second compound 3.16 µM, first compound 0.0949 µM) 0.83% | viability, T/C (second compound 3.16 µM, first compound 0.3 µM) 0.79% | viability, T/C (second compound 10 µM, first compound 0.000949 µM) 0.08% | viability, T/C (second compound 10 µM, first compound 0.003 µM) 1.39% | viability, T/C (second compound 10 µM, first compound 0.00949 µM) 0.12% | viability, T/C (second compound 10 µM, first compound 0.03 µM) 0.16% | viability, T/C (second compound 10 µM, first compound 0.0949 µM) 2.52% | viability, T/C (second compound 10 µM, first compound 0.3 µM) 2.16%
< 0.949 nM: IC50 (second compound 0.316 µM) | IC50 (second compound 1 µM) | IC50 (second compound 3.16 µM) | IC50 (second compound 10 µM)
6.63 nM: IC50 (second compound 0.1 µM)
6.51 nM: IC50 (second compound 0.0316 µM)
inactive: viability, T/C (second compound 0.0316 µM, first compound 0.000949 µM) 103% | viability, T/C (second compound 0.0316 µM, first compound 0.003 µM) 85.5% | viability, T/C (second compound 0.0316 µM, first compound 0.00949 µM) 32.6% | viability, T/C (second compound 0.1 µM, first compound 0.000949 µM) 94.7% | viability, T/C (second compound 0.1 µM, first compound 0.003 µM) 74.5% | viability, T/C (second compound 0.1 µM, first compound 0.00949 µM) 40.2% | viability, T/C (second compound 0.1 µM, first compound 0.03 µM) 8.34% | viability, T/C (second compound 0.316 µM, first compound 0.000949 µM) 50.3% | viability, T/C (second compound 0.316 µM, first compound 0.003 µM) 28.6% | viability, T/C (second compound 0.316 µM, first compound 0.00949 µM) 20.6%
